In PMC9402538, “Rational design of a sensitivity-enhanced tracer for discovering efficient APC–Asef inhibitors” (Nature Communications, 2022):
Values joined by “and” are separate entries in the source; they are usually repeats but may differ in a detail not shown here. Equal values may be shown once. Read-outs that look alike come from different tables or passages of the source. Where a SMILES comes first, the peptide text is derived from it. The star is where a group is joined. Adamantane1carbonyl = O=C(C12CC3CC(CC(C3)C1)C2)*; Pyrrole(1-Me-2-CO) = Cn1cccc1C(=O)*; Bz = O=C(c1ccccc1)*

Key:
APC (303–739) = molecular target: T1, APC (303–739) (Homo sapiens, UniProt P25054); assay: FP competitive assay using tracer 7; format: binding; details: for FP(mp): Tracer 7, replicate wells
T1 sequence (P25054 303-739): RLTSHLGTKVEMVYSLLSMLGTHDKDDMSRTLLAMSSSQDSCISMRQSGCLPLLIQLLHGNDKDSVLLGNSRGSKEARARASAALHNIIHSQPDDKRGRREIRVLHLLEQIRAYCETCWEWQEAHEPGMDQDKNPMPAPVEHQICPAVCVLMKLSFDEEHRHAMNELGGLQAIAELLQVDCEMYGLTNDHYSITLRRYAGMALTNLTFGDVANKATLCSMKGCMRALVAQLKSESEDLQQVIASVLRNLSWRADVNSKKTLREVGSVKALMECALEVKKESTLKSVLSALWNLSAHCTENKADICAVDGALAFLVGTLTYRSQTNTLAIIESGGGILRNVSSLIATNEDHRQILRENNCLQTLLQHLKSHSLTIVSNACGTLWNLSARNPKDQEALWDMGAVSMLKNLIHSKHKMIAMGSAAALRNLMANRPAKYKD
Outline: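 Fluorescence polarization competition: APC (303–739) in 50 mM HEPES pH 7.5, 300 mM NaCl, 1 mM EDTA, 1 mM DTT, preincubated 1 h at room temperature with serially diluted peptides. FITC tracer 7 then added (400 nM stock) and FP read after 1.5 h at room temperature; IC50 by nonlinear regression, triplicates.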

APC = molecular target: T2, APC (Homo sapiens, UniProt P25054); assay: FP competitive assay using tracer 1; format: binding; details: for FP(mp): Tracer 1, triplicate raw readings
T2 sequence (P25054 303-739): T1 sequence (P25054 303-739)
Description: In our previous study, we established an FP assay for screening APC–Asef inhibitors using FITC-labeled tracer 1 (Ac–^176[…][FITC]^195–NH2)[16]. […]. However, their Kd values measured by isothermal titration calorimetry (ITC) actually vary up to more than 20 times[16],[17]. […].
FITC-labeled tracer peptides were obtained from Changzhou Kanglong Biotech Ltd. (Changzhou, Jiangsu, China). […]. The FP signal changes upon tracer binding were measured after 1.5 h of incubation using a Synergy neo microplate reader (BioTek Instruments, Inc.) and plotted against the protein concentration. The corresponding EC50 values were generated by fitting the curves with a nonlinear regression model. […]. To make a working solution, APC (303–739) was diluted in FP buffer (50 mM HEPES, pH 7.5, 300 mM NaCl, 1 mM EDTA, 1 mM DTT). […] The FP signals were measured after 1.5 h of incubation at room temperature using a Synergy neo microplate reader. Three controls were included on each plate, i.e., blank (without protein and tracer), 100% inhibition (free tracer only), and 0% inhibition (protein/tracer complex only) controls. All experiments were performed in triplicate. The IC50 values of peptides were calculated by nonlinear regression analysis using GraphPad Prism 7.0 software.

[1] = Repeat 1, Table 3 source data, read-out: IC50(μM) Repeat 1
[2] = Repeat 2, Table 3 source data, read-out: IC50(μM) Repeat 2
[3] = Repeat 3, Table 3 source data, read-out: IC50(μM) Repeat 3
[4] = mean of 3 repeats, Table 3 source data, read-out: IC50(μM) mean
[5] = Supplementary Table 4, read-out: IC50, Tracer 1

IC50 (APC (303–739); [1]) [µM]	IC50 (APC (303–739); [2]) [µM]	IC50 (APC (303–739); [3]) [µM]	FP(mp) (APC (303–739); Conc. 0.0061 μM)	FP(mp) (APC (303–739); Conc. 0.0122 μM)	FP(mp) (APC (303–739); Conc. 0.0244 μM)	FP(mp) (APC (303–739); Conc. 0.05 μM)	FP(mp) (APC (303–739); Conc. 0.10 μM)	FP(mp) (APC (303–739); Conc. 0.20 μM)	FP(mp) (APC (303–739); Conc. 0.39 μM)	FP(mp) (APC (303–739); Conc. 0.78 μM)	FP(mp) (APC (303–739); Conc. 1.56 μM)	FP(mp) (APC (303–739); Conc. 3.13 μM)	FP(mp) (APC (303–739); Conc. 6.25 μM)	FP(mp) (APC (303–739); Conc. 12.50 μM)	FP(mp) (APC (303–739); Conc. 25.00 μM)	FP(mp) (APC (303–739); Conc. 50.00 μM)	IC50 (APC (303–739); [4]) [µM]	IC50 (APC; [5]) [nM]	FP(mp) (APC; Conc. 0.05 μM)	SMILES	also measured
–	–	–	–	–	–	–	–	–	–	–	–	–	–	–	–	–	–	–	–	CC(C)C[C@H](NC(=O)[C@H](CO)NC(=O)[C@H](CCC(=O)O)NC(=O)CNC(=O)[C@H](C)NC(=O)c1ccccc1)C(=O)N[C@@H](Cc1ccc(O)cc1)C(N)=O [MAI-463] (Bz-AGESLY-NH2)	IC50 (APC (303–739); IC50, Tracer 7, Supplementary Table 4): 1.3 ± 0.05 µM; IC50 (APC): 730 ± 150 nM
0.366	0.34	0.303	303 mp	296 mp and 295 mp and 301 mp	291 mp and 290 mp and 295 mp	274 mp and 278 mp and 275 mp	247 mp and 251 mp and 254 mp	216 mp and 217 mp and 220 mp	171 mp and 173 mp and 169 mp	131 mp and 132 mp (2×)	98 mp and 97 mp and 95 mp	71 mp and 73 mp and 75 mp	62 mp and 60 mp and 65 mp	52 mp and 53 mp and 55 mp	50 mp (2×) and 55 mp	47 mp and 50 mp (2×)	0.336	490 ± 130	182 mp and 181 mp and 180 mp	CC(C)C[C@H](NC(=O)[C@H](CO)NC(=O)[C@H](CCC(=O)O)NC(=O)CNC(=O)[C@H](C)NC(=O)c1cccn1C)C(=O)N[C@@H](Cc1ccc(O)cc1)C(=O)N[C@@H](CCC(=O)O)C(N)=O [MAI-510] ({Pyrrole(1-Me-2-CO)}-AGESLYE-NH2)	FP(mp) (APC; Conc. 0.10 μM): 170 mp and 178 mp and 179 mp; FP(mp) (APC; Conc. 0.20 μM): 158 mp and 172 mp; FP(mp) (APC; Conc. 0.39 μM): 146 mp and 158 mp and 159 mp; FP(mp) (APC; Conc. 0.78 μM): 82 mp and 112 mp and 116 mp; FP(mp) (APC; Conc. 1.56 μM): 61 mp and 63 mp and 64 mp; FP(mp) (APC; Conc. 3.13 μM): 52 mp and 51 mp and 53 mp; FP(mp) (APC; Conc. 6.25 μM): 51 mp and 50 mp; FP(mp) (APC; Conc. 12.50 μM): 49 mp and 48 mp; FP(mp) (APC; Conc. 25.00 μM): 49 mp and 46 mp and 48 mp; FP(mp) (APC; Conc. 50.00 μM): 46 mp and 47 mp and 50 mp; FP(mp) (APC; Conc. 100.00 μM): 48 mp and 49 mp and 50 mp; FP(mp) (APC; Conc. 200.00 μM): 48 mp and 47 mp; FP(mp) (APC; Conc. 400.00 μM): 50 mp and 52 mp
1.57	1.73	1.57	310 mp and 307 mp and 309 mp	303 mp and 302 mp and 307 mp	307 mp and 305 mp and 308 mp	302 mp and 304 mp and 307 mp	294 mp and 293 mp and 295 mp	282 mp (2×) and 276 mp	256 mp and 254 mp and 252 mp	224 mp and 222 mp and 229 mp	180 mp and 186 mp and 189 mp	136 mp and 134 mp and 137 mp	106 mp (2×) and 108 mp	85 mp and 86 mp and 89 mp	67 mp and 68 mp and 71 mp	57 mp and 60 mp and 59 mp	1.62	440 ± 120	181 mp	CC(C)C[C@H](NC(=O)[C@H](CO)NC(=O)[C@H](CCC(=O)O)NC(=O)CNC(=O)[C@H](C)NC(=O)C12CC3CC(CC(C3)C1)C2)C(=O)N[C@@H](Cc1ccc(O)cc1)C(=O)N[C@@H](CCC(=O)O)C(N)=O [MAI-505] (Adamantane1carbonyl-AGESLYE-NH2)	FP(mp) (APC; Conc. 0.10 μM): 177 mp and 182 mp and 179 mp; FP(mp) (APC; Conc. 0.20 μM): 161 mp and 172 mp and 174 mp; FP(mp) (APC; Conc. 0.39 μM): 139 mp and 163 mp and 161 mp; FP(mp) (APC; Conc. 0.78 μM): 68 mp and 100 mp and 109 mp; FP(mp) (APC; Conc. 1.56 μM): 56 mp and 64 mp and 68 mp; FP(mp) (APC; Conc. 3.13 μM): 57 mp and 55 mp and 56 mp; FP(mp) (APC; Conc. 6.25 μM): 52 mp and 51 mp; FP(mp) (APC; Conc. 12.50 μM): 51 mp and 49 mp and 50 mp; FP(mp) (APC; Conc. 25.00 μM): 47 mp and 50 mp; FP(mp) (APC; Conc. 50.00 μM): 49 mp and 51 mp; FP(mp) (APC; Conc. 100.00 μM): 50 mp and 48 mp; FP(mp) (APC; Conc. 200.00 μM): 50 mp and 51 mp; FP(mp) (APC; Conc. 400.00 μM): 50 mp and 49 mp
